We go through 28 compounds from ChEMBL document CHEMBL5505960, “Synthesis and evaluation of butylphthalide-scutellarein hybrids as multifunctional agents for the treatment of Alzheimer's disease” (Eur J Med Chem, 2024).

Series [1] is described as follows: Antioxidant activity assessed as trolox equivalent of ORAC radical scavenging activity by ORAC-FL assay relative to trolox. It counts as functional.
The target of series [2] is Amyloid-beta precursor protein (Homo sapiens) (UniProt P05067). The series can be described thus: Inhibition of amyloid beta (1 to 42) (unknown origin) self induced aggregation at 25 uM by ThT fluorescence assay relative to control.
For series [3] the target is unchanged. Briefly: Inhibition of Cu2+ induced amyloid beta (1 to 42)(unknown origin) fibrillation at 25 uM by ThT fluorescence assay relative to control.
Series [4] has the same target. The series can be described thus: Disaggregation of self-induced amyloid beta (1 to 42) (unknown origin) fibrils at 25 uM by ThT fluorescence assay relative to control.
In series [5] the test system is HT-22. The series can be described thus: Neuroprotective activity against amyloid beta (1 to 42) induced cell injury in mouse HT-22 cells assessed as cell viability at 50 uM incubated for 24 hrs by MTT assay. It counts as functional, cell-based.
For series [6], the system named is HT-22. The series can be described thus: Neuroprotective activity against amyloid beta (1 to 42)-induced injury in mouse HT-22 cells assessed as reversal of reduction in cell numbers at 10 uM measured after 24 hrs by MTT assay. It counts as functional, cell-based. On the technique in general: Tetrazolium dyes change colour on reduction, which living cells bring about.

For series [7], the system named is HT-22. Briefly: Neuroprotective activity against amyloid beta (1 to 42)-induced injury in mouse HT-22 cells assessed as reversal of reduced cell synapse length at 10 uM measured after 24 hrs […]. It counts as functional, cell-based.
Series [8] has as its system BV-2. The series can be described thus: Cytotoxicity against mouse BV-2 cells at upto 10 uM measured after 24 hrs by MTT assay. It counts as toxicity, cell-based. The note with it: bv-2, 24 h.
For series [9], the system named is BV-2. Briefly: Cytotoxicity against LPS-induced mouse BV-2 cells assessed as cell viability at 0.5 to 10 uM incubated for 24 hrs by MTT assay. The note with it: bv-2, 24 h, dose 0.5-10 µM. It counts as toxicity, cell-based.
The subject of series [10] is BV-2. The series can be described thus: Antineuroinflammatory activity in LPS-induced mouse BV-2 cells assessed as inhibition of NO release at 0.5 uM preincubated for 30 mins followed by LPS stimulation and measured after 24 hrs relative to control. It counts as functional. Also noted: scale not given: the % may be the effect or the level left. Conditions: time 24.5 hrs.

Series [11] relates to BV-2. The series can be described thus: Antineuroinflammatory activity in LPS-induced mouse BV-2 cells assessed as inhibition of NO release at 2.5 uM preincubated for 30 mins followed by LPS stimulation and measured after 24 hrs relative to control. It counts as functional. The note with it: time 24.5 hrs. Set-up: scale not given: the % may be the effect or the level left.

In series [12] the test system is BV-2. Briefly: Antineuroinflammatory activity in LPS-induced mouse BV-2 cells assessed as inhibition of NO release at 10 uM preincubated for 30 mins followed by LPS stimulation and measured after 24 hrs relative to control. It counts as functional. Also noted: scale not given: the % may be the effect or the level left. The note with it: time 24.5 hrs.
The test system of series [13] is BV-2. Briefly: Antineuroinflammatory activity in LPS-induced mouse BV-2 cells assessed as inhibition of TNF-alpha release at 0.5 uM preincubated for 30 mins followed by LPS stimulation and measured after 24 hrs relative to control. Conditions: time 24.5 hrs. It counts as functional. Set-up: scale not given: the % may be the effect or the level left.
The test system of series [14] is BV-2. Briefly: Antineuroinflammatory activity in LPS-induced mouse BV-2 cells assessed as inhibition of TNF-alpha release at 2.5 uM preincubated for 30 mins followed by LPS stimulation and measured after 24 hrs relative to control. It counts as functional. The note with it: time 24.5 hrs. Also noted: scale not given: the % may be the effect or the level left.
In series [15] the test system is BV-2. Briefly: Antineuroinflammatory activity in LPS-induced mouse BV-2 cells assessed as inhibition of TNF-alpha release at 10 uM preincubated for 30 mins followed by LPS stimulation and measured after 24 hrs relative to control. It counts as functional. Also noted: scale not given: the % may be the effect or the level left. The note with it: time 24.5 hrs.
In series [16] the test system is BV-2. Briefly: Antineuroinflammatory activity in LPS-induced mouse BV-2 cells assessed as inhibition of IL-1 beta release at 0.5 uM preincubated for 30 mins followed by LPS stimulation and measured after 24 hrs relative to control. It counts as functional. Also noted: scale not given: the % may be the effect or the level left. Conditions: time 24.5 hrs.
Series [17] deals with BV-2. Briefly: Antineuroinflammatory activity in LPS-induced mouse BV-2 cells assessed as inhibition of IL-1 beta release at 2.5 uM preincubated for 30 mins followed by LPS stimulation and measured after 24 hrs relative to control. It counts as functional. Also noted: scale not given: the % may be the effect or the level left. Conditions: time 24.5 hrs.
Series [18] relates to BV-2. The series can be described thus: Antineuroinflammatory activity in LPS-induced mouse BV-2 cells assessed as inhibition of IL-1 beta release at 10 uM preincubated for 30 mins followed by LPS stimulation and measured after 24 hrs relative to control. It counts as functional. Also noted: scale not given: the % may be the effect or the level left. Conditions: time 24.5 hrs.

Calls of active or inactive are those of the source. No cut-off for these calls is given here.

Chain of Amyloid-beta precursor protein (Homo sapiens) (P05067 whole entry): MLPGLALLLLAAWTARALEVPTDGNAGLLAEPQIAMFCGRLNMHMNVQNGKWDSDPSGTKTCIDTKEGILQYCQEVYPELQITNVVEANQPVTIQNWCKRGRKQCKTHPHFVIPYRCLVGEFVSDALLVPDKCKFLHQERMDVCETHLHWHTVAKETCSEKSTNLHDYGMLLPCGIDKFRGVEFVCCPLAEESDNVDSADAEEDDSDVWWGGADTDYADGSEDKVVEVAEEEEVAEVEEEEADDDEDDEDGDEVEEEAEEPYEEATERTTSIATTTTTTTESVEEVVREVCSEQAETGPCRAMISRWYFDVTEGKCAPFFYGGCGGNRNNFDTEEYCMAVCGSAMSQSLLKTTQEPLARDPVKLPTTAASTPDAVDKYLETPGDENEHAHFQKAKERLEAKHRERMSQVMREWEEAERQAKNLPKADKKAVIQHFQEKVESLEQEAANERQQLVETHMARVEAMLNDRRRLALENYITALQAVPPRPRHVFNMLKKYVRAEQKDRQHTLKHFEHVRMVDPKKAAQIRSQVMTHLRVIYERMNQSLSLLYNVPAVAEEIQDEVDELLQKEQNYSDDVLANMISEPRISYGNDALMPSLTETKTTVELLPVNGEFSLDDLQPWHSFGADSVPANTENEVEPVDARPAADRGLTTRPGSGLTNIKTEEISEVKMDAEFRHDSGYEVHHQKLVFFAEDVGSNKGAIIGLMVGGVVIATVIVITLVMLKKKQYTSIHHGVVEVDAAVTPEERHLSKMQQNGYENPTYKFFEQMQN

Regarding `CCCCCCCC1OC(=O)c2c1cc(OC)c(OC)c2O` (stereo not drawn), the Activity in [1] was 1.34. In series [2], this compound had an inhibition of 26.4%.

For the compound `CCCCCCC1OC(=O)c2c1cc(OC)c(OC)c2OC` (stereo not drawn), the Activity in series [1] came to 0.68. In addition, in series [2], the inhibition is 25.2%.

Take `CCCCCC1OC(=O)c2c1cc(OC)c(O)c2OC` (stereo not drawn): the Activity in series [1] was determined as 2.08. In addition, the inhibition in series [2] stood at 19.4%.

On to `C=CCCCCCC1OC(=O)c2c1cc(OC)c(OC)c2O` (stereo not drawn), for which the Activity in [1] came out at 1.81. The inhibition in series [2] was less than 5%.

On to `CCCCCCC1OC(=O)c2c1cc(OC)c(OC)c2O` (stereo not drawn), for which, in series [1], the Activity turned out to be 1.44. The compound also yielded an inhibition in series [2] of 25.2%.

As for `CCCCCCC1OC(=O)c2c1cc(OC)c(O)c2O` (stereo not drawn), the Activity in series [1] is 2.5; in series [4], 32.3%. Further, the inhibition in series [2] was determined as 83.3%; in [3], 30.5%.

On to `CCCCC1OC(=O)c2c1cc(OC)c(O)c2OC` (stereo not drawn), for which the Activity in series [1] turned out to be 1.59. The inhibition in series [2] was determined as 23.4%.

Take `C=CC(C)(C)C1OC(=O)c2c1cc(OC)c(OC)c2OC` (stereo not drawn): the Activity in series [1] was 0.45. In addition, in series [2], the inhibition was 15%.

Take `C=CCC1OC(=O)c2c1cc(OC)c(OC)c2OC` (stereo not drawn): the Activity in series [1] is 0.41. In [2], the inhibition came to 25.4%.

Turning to `CCCC1OC(=O)c2c1cc(OC)c(OC)c2OC` (stereo not drawn), in series [1], the Activity was 0.39. The compound further returned an inhibition in series [2] of 21.8%.

In the case of `CCCCCCCC1OC(=O)c2c1cc(OC)c(OC)c2OC` (stereo not drawn), the Activity in series [1] turned out to be 0.62. Also, in series [2], the inhibition was 16.5%.

With `C=CC(C)(C)C1OC(=O)c2c1cc(OC)c(OC)c2O` (stereo not drawn), the Activity in series [1] turned out to be 1.94. The same compound gave an inhibition in series [2] of 37.1%.

In the case of `CCCC1OC(=O)c2c1cc(OC)c(OC)c2O` (stereo not drawn), in [1], the Activity worked out at 1.21. The inhibition in series [2] came out at 27.3%.

`C=CCCCC1OC(=O)c2c1cc(OC)c(OC)c2OC` (stereo not drawn): the Activity in series [1] amounted to 0.71. In [2], the inhibition was 19.2%.

Consider `C=CCCCCCC1OC(=O)c2c1cc(OC)c(OC)c2OC` (stereo not drawn), for which the Activity in series [1] is 0.46. For the same compound, the inhibition in series [2] is 19.2%.

For `C=CCCC1OC(=O)c2c1cc(OC)c(OC)c2O` (stereo not drawn), the Activity in [1] worked out at 1.93. This compound also displayed an inhibition in [2] of less than 5%.

With `CCCCC1OC(=O)c2c1cc(OC)c(O)c2O` (stereo not drawn), the Activity worked out at 2.36 in series [1] and 39.5% in series [4]. Further, the inhibition in series [2] was found to be 78.8%; in series [3] it was 28.5%.

Regarding `CCCCCC1OC(=O)c2c1cc(OC)c(OC)c2O` (stereo not drawn), the Activity in series [1] came to 1.36. The compound further had an inhibition in series [2] of 35.1%.

Turning to `C=CCCCCC1OC(=O)c2c1cc(OC)c(OC)c2OC` (stereo not drawn), the Activity in series [1] came out at 0.61. Further, the inhibition in [2] turned out to be 17.6%.

Take `CCCCCCC1OC(=O)c2c1cc(OC)c(O)c2OC` (stereo not drawn): the Activity in [1] came to 1.6. In series [2], the inhibition amounted to 29.1%.

For the compound `CCCCC1OC(=O)c2ccccc21` (racemic) [RAC-3-N-BUTYLPHTHALIDE], the Activity in series [1] is 0.23; with BV-2 [8], “Non-Toxic”; in the series on BV-2 [9], “Non-Toxic”; with BV-2 [10] it was 13.3%; in the series with BV-2 [11] it was 23.2%; with BV-2 [12], 45.5%. For the same compound, the Activity in the series with BV-2 [13] is 12.6%; in the series with BV-2 [14], 24%; in the series on BV-2 [15] it was 40.6%; in the series with BV-2 [16] it was 11.5%; with BV-2 [17] it was 21.1%; in the series on BV-2 [18], 31.3%. The outcome in the series with HT-22 [5] was Active. For the same compound, the result in the series with HT-22 [6] and in the series on HT-22 [7] was inactive.

In the case of `C=CCC1OC(=O)c2c1cc(OC)c(OC)c2O` (stereo not drawn), the Activity in [1] was 1.71. Moreover, the inhibition in series [2] is less than 5%.

`CCCCC1OC(=O)c2c1cc(OC)c(OC)c2OC` (stereo not drawn): the Activity in series [1] came out at 0.4. This compound came in with an inhibition in series [2] of 15.9%.

Turning to `C=CCCC1OC(=O)c2c1cc(OC)c(OC)c2OC` (stereo not drawn), in series [1], the Activity was 0.53. Further, the inhibition in series [2] was determined as 24.3%.

Consider `C=CCCCC1OC(=O)c2c1cc(OC)c(OC)c2O` (stereo not drawn), for which the Activity in series [1] turned out to be 1.68. Moreover, in series [2], the inhibition turned out to be 24.6%.

For the compound `CCCCCC1OC(=O)c2c1cc(OC)c(OC)c2OC` (stereo not drawn), in [1], the Activity was 0.47. This compound also had an inhibition in [2] of 19.4%.

As to `C=CCCCCC1OC(=O)c2c1cc(OC)c(OC)c2O` (stereo not drawn), the Activity in series [1] turned out to be 1.77. In addition, the inhibition in [2] is 19.2%.

With `CCCCC1OC(=O)c2c1cc(OC)c(OC)c2O` (stereo not drawn), the Activity in series [1] came to 1.27. In series [2], this compound came in with an inhibition of 30.2%.

What is called inhibition is the share of the control response that was lost under treatment.
